Measurements as given in patent publication US20070049564A1 (Wyeth, priority 2005, published 2007).
In brackets after ≈: the same amount, converted by molar mass. Read-outs that look alike come from different tables or passages of the source.

Assays:
Staph. = experiment: Range of MIC for Staph. strains, including MRSA; details: Staphylococcus aureus, MRSA
E. coli = experiment: Range of MIC for E. coli strains; details: Escherichia coli
[1] = read-out: Range of MIC, Staph (Mouse Serum)
[2] = read-out: Range of MIC, Staph (Water)
[3] = 20 h, read-out: Range of MIC, E. coli (Mouse Serum)
[4] = read-out: Range of MIC, E. coli (Water)

SMILES | MIC (Staph.; [1]) | MIC (Staph.; [2]) | MIC (E. coli; [3]) | MIC (E. coli; [4])
CN(C)c1cc(NC(=O)CN(C(=O)OCOC(=O)COc2ccc(F)cc2)C(C)(C)C)c(O)c2c1C[C@H]1C[C@H]3[C@H](N(C)C)C(O)=C(C(N)=O)C(=O)[C@@]3(O)C(O)=C1C2=O [Example 64] | 0.12 to 0.25 µg/mL (≈ 0.148 to 0.308 µM) | 0.12 to 0.5 µg/mL (≈ 0.148 to 0.616 µM) | < 0.12 µg/mL | 0.12 to 1 µg/mL (≈ 0.148 to 1.23 µM)
CN(C)c1cc(NC(=O)CN(C(=O)OCOC(=O)CC2CCCCC2)C(C)(C)C)c(O)c2c1C[C@H]1C[C@H]3[C@H](N(C)C)C(O)=C(C(N)=O)C(=O)[C@@]3(O)C(O)=C1C2=O [Example 65, ({[(2-{[(5aR,6aS,7S,10aS)-9-(aminocarbonyl)-4,7-bis(dimethylamino)-1,8,10a,11-tetrahydroxy-10,12-dioxo-5,5a,6,6a,7,10,10a,12-octahydrotetracen-2-yl]amino}-2-oxoethyl)(tert-butyl)amino]carbonyl}oxy)methyl cyclohexylacetate] | 0.12 to 0.5 µg/mL (≈ 0.153 to 0.638 µM) | 0.12 to 1 µg/mL (≈ 0.153 to 1.28 µM) | 0.12 to 0.5 µg/mL (≈ 0.153 to 0.638 µM) | 16 µg/mL (≈ 20.4 µM)
Cc1cccc(C)c1C(=O)OCOC(=O)N(CC(=O)Nc1cc(N(C)C)c2c(c1O)C(=O)C1=C(O)[C@]3(O)C(=O)C(C(N)=O)=C(O)[C@@H](N(C)C)[C@@H]3C[C@@H]1C2)C(C)(C)C [Example 66, ({[(2-{[(5aR,6aS,7S,10aS)-9-(aminocarbonyl)-4,7-bis(dimethylamino)-1,8,10a,11-tetrahydroxy-10,12-dioxo-5,5a,6,6a,7,10,10a,12-octahydrotetracen-2-yl]amino}-2-oxoethyl)(tert-butyl)amino]carbonyl}oxy)methyl 2,6-dimethylbenzoate] | 1 to 16 µg/mL (≈ 1.26 to 20.2 µM) | 2 to 16 µg/mL (≈ 2.53 to 20.2 µM) | > 128 µg/mL | > 128 µg/mL
CN(C)c1cc(NC(=O)CN(C(=O)OCOC(=O)Cc2ccccc2)C(C)(C)C)c(O)c2c1C[C@H]1C[C@H]3[C@H](N(C)C)C(O)=C(C(N)=O)C(=O)[C@@]3(O)C(O)=C1C2=O [Example 67, ({[(2-{[(5aR,6aS,7S,10aS)-9-(aminocarbonyl)-4,7-bis(dimethylamino)-1,8,10a,11-tetrahydroxy-10,12-dioxo-5,5a,6,6a,7,10,10a,12-octahydrotetracen-2-yl]amino}-2-oxoethyl)(tert-butyl)amino]carbonyl}oxy)methyl phenylacetate] | 0.12 to 0.25 µg/mL (≈ 0.154 to 0.321 µM) | 0.12 to 1 µg/mL (≈ 0.154 to 1.29 µM) | 0.12 to 0.25 µg/mL (≈ 0.154 to 0.321 µM) | 8 to 32 µg/mL (≈ 10.3 to 41.1 µM)
CN(C)c1cc(NC(=O)CN(C(=O)OCOC(=O)C(C)(C)C)C(C)(C)C)c(O)c2c1C[C@H]1C[C@H]3[C@H](N(C)C)C(O)=C(C(N)=O)C(=O)[C@@]3(O)C(O)=C1C2=O [Example 68, ({[(2-{[(5aR,6aS,7S,10aS)-9-(aminocarbonyl)-4,7-bis(dimethylamino)-1,8,10a,11-tetrahydroxy-10,12-dioxo-5,5a,6,6a,7,10,10a,12-octahydrotetracen-2-yl]amino}-2-oxoethyl)(tert-butyl)amino]carbonyl}oxy)methyl pivalate] | 0.12 to 0.25 µg/mL (≈ 0.161 to 0.336 µM) | 0.12 to 1 µg/mL (≈ 0.161 to 1.34 µM) | 0.12 to 1 µg/mL (≈ 0.161 to 1.34 µM) | 2 to 8 µg/mL (≈ 2.69 to 10.8 µM)
CN(C)c1cc(NC(=O)CN(C(=O)OCOC(=O)c2cc3ccccc3o2)C(C)(C)C)c(O)c2c1C[C@H]1C[C@H]3[C@H](N(C)C)C(O)=C(C(N)=O)C(=O)[C@@]3(O)C(O)=C1C2=O [Example 69, ({[(2-{[(5aR,6aS,7S,10aS)-9-(aminocarbonyl)-4,7-bis(dimethylamino)-1,8,10a,11-tetrahydroxy-10,12-dioxo-5,5a,6,6a,7,10,10a,12-octahydrotetracen-2-yl]amino}-2-oxoethyl)(tert-butyl)amino]carbonyl}oxy)methyl 1-benzofuran-2-carboxylate] | 0.12 to 0.25 µg/mL (≈ 0.149 to 0.311 µM) | 0.12 to 1 µg/mL (≈ 0.149 to 1.24 µM) | 0.12 to 0.5 µg/mL (≈ 0.149 to 0.622 µM) | 8 to 64 µg/mL (≈ 9.95 to 79.6 µM)
CN(C)c1cc(NC(=O)CN(C(=O)OCOC(=O)c2cccn2C)C(C)(C)C)c(O)c2c1C[C@H]1C[C@H]3[C@H](N(C)C)C(O)=C(C(N)=O)C(=O)[C@@]3(O)C(O)=C1C2=O [Example 70] | 1 to 4 µg/mL (≈ 1.3 to 5.22 µM) | 2 to 4 µg/mL (≈ 2.61 to 5.22 µM) | 4 to 8 µg/mL (≈ 5.22 to 10.4 µM) | > 64 µg/mL
COc1ccc(C(=O)OCOC(=O)N(CC(=O)Nc2cc(N(C)C)c3c(c2O)C(=O)C2=C(O)[C@]4(O)C(=O)C(C(N)=O)=C(O)[C@@H](N(C)C)[C@@H]4C[C@@H]2C3)C(C)(C)C)cc1 [Example 72, ({[(2-{[(5aR,6aS,7S,10aS)-9-(aminocarbonyl)-4,7-bis(dimethylamino)-1,8,10a,11-tetrahydroxy-10,12-dioxo-5,5a,6,6a,7,10,10a,12-octahydrotetracen-2-yl]amino}-2-oxoethyl)(tert-butyl)amino]carbonyl}oxy)methyl 4-methoxybenzoate] | 0.5 to 1 µg/mL (≈ 0.63 to 1.26 µM) | 4 to 8 µg/mL (≈ 5.04 to 10.1 µM) | 0.5 to 1 µg/mL (≈ 0.63 to 1.26 µM) | > 64 µg/mL
CN(C)c1cc(NC(=O)CN(C(=O)OCOC(=O)c2cc3ccccc3[nH]2)C(C)(C)C)c(O)c2c1C[C@H]1C[C@H]3[C@H](N(C)C)C(O)=C(C(N)=O)C(=O)[C@@]3(O)C(O)=C1C2=O [Example 73, ({[(2-{[(5aR,6aS,7S,10aS)-9-(aminocarbonyl)-4,7-bis(dimethylamino)-1,8,10a,11-tetrahydroxy-10,12-dioxo-5,5a,6,6a,7,10,10a,12-octahydrotetracen-2-yl]amino}-2-oxoethyl)(tert-butyl)amino]carbonyl}oxy)methyl 1H-indole-2-carboxylate] | 1 to 4 µg/mL (≈ 1.25 to 4.98 µM) | 4 to 8 µg/mL (≈ 4.98 to 9.96 µM) | 0.5 to 1 µg/mL (≈ 0.623 to 1.25 µM) | > 64 µg/mL
CN(C)c1cc(NC(=O)OCOC(=O)c2cccs2)c(O)c2c1C[C@H]1C[C@H]3[C@H](N(C)C)C(O)=C(C(N)=O)C(=O)[C@@]3(O)C(O)=C1C2=O [Example 75, [({[(5aR,6aS,7S,10aS)-9-(aminocarbonyl)-4,7-bis(dimethylamino)-1,8,10a,11-tetrahydroxy-10,12-dioxo-5,5a,6,6a,7,10,10a,12-octahydrotetracen-2-yl]amino}carbonyl)oxy]methyl thiophene-2-carboxylate] | 8 to 16 µg/mL (≈ 12.2 to 24.4 µM) | 16 to 32 µg/mL (≈ 24.4 to 48.7 µM) | – | > 64 µg/mL
CN(C)c1cc(NC(=O)OCOC(=O)c2ccc(F)cc2)c(O)c2c1C[C@H]1C[C@H]3[C@H](N(C)C)C(O)=C(C(N)=O)C(=O)[C@@]3(O)C(O)=C1C2=O [Example 76, [({[(5aR,6aS,7S,10aS)-9-(aminocarbonyl)-4,7-bis(dimethylamino)-1,8,10a, 1-tetrahydroxy-10,12-dioxo-5,5a,6,6a,7,10,10a,12-octahydrotetracen-2-yl]amino}carbonyl)oxy]methyl 4-fluorobenzoate] | 8 to 16 µg/mL (≈ 12 to 23.9 µM) | 8 to 32 µg/mL (≈ 12 to 47.9 µM) | – | > 64 µg/mL
Cc1cc(C)cc(C(=O)OCOC(=O)Nc2cc(N(C)C)c3c(c2O)C(=O)C2=C(O)[C@]4(O)C(=O)C(C(N)=O)=C(O)[C@@H](N(C)C)[C@@H]4C[C@@H]2C3)c1 [Example 77, [({[(5aR,6aS,7S,10aS)-9-(aminocarbonyl)-4,7-bis(dimethylamino)-1,8,10a,11-tetrahydroxy-10,12-dioxo-5,5a,6,6a,7,10,10a,12-octahydrotetracen-2-yl]amino}carbonyl)oxy]methyl 3,5-dimethylbenzoate] | 2 to 4 µg/mL (≈ 2.95 to 5.89 µM) | 4 to 32 µg/mL (≈ 5.89 to 47.1 µM) | – | > 64 µg/mL
CN(C)c1cc(NC(=O)OCOC(=O)C(C)(C)C)c(O)c2c1C[C@H]1C[C@H]3[C@H](N(C)C)C(O)=C(C(N)=O)C(=O)[C@@]3(O)C(O)=C1C2=O [Example 78, [({[(5aR,6aS,7S,10aS)-9-(aminocarbonyl)-4,7-bis(dimethylamino)-1,8,10a,11-tetrahydroxy-10,12-dioxo-5,5a,6,6a,7,10,10a,12-octahydrotetracen-2-yl]amino}carbonyl)oxy]methyl pivalate] | 8 µg/mL (≈ 12.7 µM) | 8 to 32 µg/mL (≈ 12.7 to 50.7 µM) | 16 to 64 µg/mL (≈ 25.4 to 101 µM) | > 64 µg/mL
CN(C)c1cc(NC(=O)OCOC(=O)CC(C)(C)C)c(O)c2c1C[C@H]1C[C@H]3[C@H](N(C)C)C(O)=C(C(N)=O)C(=O)[C@@]3(O)C(O)=C1C2=O [Example 79, [({[(5aR,6aS,7S,10aS)-9-(aminocarbonyl)-4,7-bis(dimethylamino)-1,8,10a,11-tetrahydroxy-10,12-dioxo-5,5a,6,6a,7,10,10a,12-octahydrotetracen-2-yl]amino}carbonyl)oxy]methyl 3,3-dimethylbutanoate] | 4 µg/mL (≈ 6.2 µM) | 4 to 8 µg/mL (≈ 6.2 to 12.4 µM) | – | > 64 µg/mL
CCC(C)(C)C(=O)OCOC(=O)Nc1cc(N(C)C)c2c(c1O)C(=O)C1=C(O)[C@]3(O)C(=O)C(C(N)=O)=C(O)[C@@H](N(C)C)[C@@H]3C[C@@H]1C2 [Example 80, [({[(5aR,6aS,7S,10aS)-9-(aminocarbonyl)-4,7-bis(dimethylamino)-1,8,10a,11-tetrahydroxy-10,12-dioxo-5,5a,6,6a,7,10,10a,12-octahydrotetracen-2-yl]amino}carbonyl)oxy]methyl 2,2-dimethylbutanoate] | 4 to 8 µg/mL (≈ 6.2 to 12.4 µM) | 4 to 16 µg/mL (≈ 6.2 to 24.8 µM) | – | –
CN(C)c1cc(NC(=O)CN(C(=O)OCOC(=O)c2cn(C)c3ccccc23)C(C)(C)C)c(O)c2c1C[C@H]1C[C@H]3[C@H](N(C)C)C(O)=C(C(N)=O)C(=O)[C@@]3(O)C(O)=C1C2=O [Example 83, ({[(2-{[(5aR,6aS,7S,10aS)-9-(aminocarbonyl)-4,7-bis(dimethylamino)-1,8,10a,11-tetrahydroxy-10,12-dioxo-5,5a,6,6a,7,10,10a,12-octahydrotetracen-2-yl]amino}-2-oxoethyl)(tert-butyl)amino]carbonyl}oxy)methyl 1-methyl-1H-indole-3-carboxylate] | 8 to 32 µg/mL (≈ 9.79 to 39.2 µM) | 2 to 16 µg/mL (≈ 2.45 to 19.6 µM) | – | > 64 µg/mL
CN(C)c1cc(NC(=O)CN(C(=O)OCOC(=O)c2ccc3ccccc3n2)C(C)(C)C)c(O)c2c1C[C@H]1C[C@H]3[C@H](N(C)C)C(O)=C(C(N)=O)C(=O)[C@@]3(O)C(O)=C1C2=O [Example 84, ({[(2-{[(5aR,6aS,7S,10aS)-9-(aminocarbonyl)-4,7-bis(dimethylamino)-1,8,10a,11-tetrahydroxy-10,12-dioxo-5,5a,6,6a,7,10,10a,12-octahydrotetracen-2-yl]amino}-2-oxoethyl)(tert-butyl)amino]carbonyl}oxy)methyl quinoline-2-carboxylate] | 0.5 to 2 µg/mL (≈ 0.614 to 2.45 µM) | 0.5 to 4 µg/mL (≈ 0.614 to 4.91 µM) | 2 to 4 µg/mL (≈ 2.45 to 4.91 µM) | > 64 µg/mL
